# Data taken from US4683242A, “Transdermal treatment for pain and inflammation with 2-amino-3-aroylbenzeneacetic acids, salts and esters” (A. H. Robins Company, Incorporated, priority 1985, dated 1987).
# Counter-ions that a name gives are not always drawn.
# Assays:
# [1] = tested on: Carrageenan-Induced Rat-Paw Edema; assay: Carrageenan Induced Rat-Paw Edema, dermal application (antiinflammatory); format: in vivo; conditions: for Measurement of Edema at 3 hr.: 4 hr pretreatment; for Activity applied dermally compared with orally for a given dose: dermal vs oral, Formula B cream (pH=3.5) for Example 74
# Protocol: On the day prior to the test, an area of about 1"×1" of the lower back just above the tail of each of the rats was shaved and depilated with the commercially available hair removal preparation--Nair®. The rats were returned to the vivarium for feed and water.
# The following day each rat was weighed and the volume of the left hind limb recorded. The rats were randomized into groups. Creams were applied in the following manner: 0.2 ml of the cream vehicle (control--no active agent) or formulation containing active ingredient was rubbed thoroughly onto the shaved depilated area of the rat's back for 10-15 seconds. The rats were immediately placed into plexiglass observation cylinders to restrict movement so as to prohibit accidental oral ingestion of the cream. The rats were then placed in a quiet room for 4 hr. Four hours after dosing, 0.1 ml of 1% carrageenan was injected into the left hind limb of each rat. The rats were returned to their observation cylinders and placed in the quiet room for an additional 3 hr time, after which the volume of the left hind limb was determined. The degree of edema was determined by subtracting limb volume at 0 time from the volume determined 3 hr after carrageenan injection. Two tail Dunnett's t-tests were used to compare the edema of the treated groups with the appropriate controls (Dunnet, C. W. (1955); J. AM. STAT. ASSOC. 50: 1096-1121).
# Several compounds of Formula I were mixed with the creams as prepared above so as to obtain cream containing 3.2 weight percent of each compound based on the weight of free acid or the ester. Rats in groups of 6 (randomized) were each treated with 0.2 ml of the cream containing the compound using the foregoing Carrageenan Induced Rat-Paw Edema test. The control rats were treated with cream having no test compound.
# In addition, one preferred compound was tested further using the foregoing Carrageenan-Induced Rat-Paw Edema test at various concentrations in the cream of Formula B (pH=3.5).
# [2] = tested on: Acetylcholine Induced Abdominal Constriction; assay: Acetylcholine Induced Abdominal Constriction Test in Mice, dermal application (analgetic); format: in vivo, mouse; conditions: Formula A cream pH = 7.0, 4 hr pretreatment
# Protocol: Active agent was incorporated into the cream described under Formual A above (pH=7.0) at various concentrations calculated on a free acid basis.
# Mice were prepared for the test by shaving an area measuring 3/4"×3/4" on their backs behind their heads and then depilating with Nair®, a cosmetic hair remover. The mice were given free access to feed and water prior to the experiment. On the following day the mice were weighed and fitted with a cardboard collar (13/4"×13/4" with a 1/2" hole in the center) around the neck to prevent ingestion of applied compounds. The mice were randomized into groups of 10 using random tables generated by the IBM scrambler. A table of random permutations of blocks of order 3 was used to select the control and treated groups. The randomized mice were fed and placed in individual observation cages 1 hr prior to application of 50 microliters of the cream (by rubbing onto the skin for approximately 10 seconds).
# The mice acting as controls were treated with cream having no test compound in it. Four hours after the application of the cream to the depilated area, acetylcholine bromide was injected intraperitoneally at 6 mg/kg (10 ml/kg in saline) with a plastic syringe with a 5/8 inch, 25-gauge disposable needle. Each mouse was immediately placed under an inverted 1 liter beaker and observed for 3 minutes for the presence of abdominal constriction. If no abdominal constriction was observed during this period, the response was considered blocked. ED50 and 95% confidence limits were determined by computer using a probit analysis method. Ten mice were used at each concentration, including controls.
# The following results in Table 5 were obtained using the foregoing method using the cream of Formula A (pH=7.0) as described above having mixed therein the compound of Example 74 in comparison to controls wherein no test compound was present.
# [3] = quotation from Remington's, 16th Ed., page 1523; cited from earlier work
# [4] = Table 3, Formula A cream, pH = 7.0, 0.2 ml, 3.2% by weight (free acid basis or ester), dermal
# [5] = Table 3, Formula A cream, pH = 7.0, 0.2 ml, 3.2% by weight, dermal, p = <0.05
# [6] = Table 4, first series, Formula B pH 3.5, 0.032 % (W/W), 0.37 mg/kg dermal
# [7] = Table 4, second series, Formula B pH 3.5, 0.01 % (W/W), 0.10 mg/kg dermal
# [8] = Table 4, second series, Formula B pH 3.5, 0.032 % (W/W), 0.32 mg/kg dermal
# [9] = Table 4, second series, Formula B pH 3.5, 0.10 % (W/W), 0.94 mg/kg dermal
smiles,measurement,setting,value
"Cc1ccc(C(=O)c2cc(Cl)cc(CC(=O)O)c2N)cc1 [Example 55, 2-Amino-3-(4-methylbenzoyl)-5-chlorobenzeneacetic acid, sodium salt, hydrate [4:3]]",Measurement of Edema at 3 hr.,[1]; [4],0.33 ± 0.20 ml ± S.D.
same,% Change (edema vs control),[1]; [5],-64%
"CSc1ccc(C(=O)c2cc(F)cc(CC(=O)O)c2N)cc1 [Example 19, 2-Amino-3-[(4-methylthio)benzoyl]-5-fluorobenzeneacetic acid, sodium salt]",Measurement of Edema at 3 hr.,[1]; [4],0.55 ± 0.14 ml ± S.D.
same,% Change (edema vs control),[1]; [5],-41%
"Nc1c(CC(=O)O)cccc1C(=O)c1ccc(I)cc1 [Example 57, 2-Amino-3-(4-iodobenzoyl)benzeneacetic acid, sodium salt, hydrate [4:1]]",Measurement of Edema at 3 hr.,[1]; [4],0.40 ± 0.14 ml ± S.D.
same,% Change (edema vs control),[1]; [5],-57%
"CCOC(=O)Cc1cccc(C(=O)c2ccc(Br)cc2)c1N [Example 69, 2-Amino-3-(4-bromobenzoyl)benzeneacetic acid, ethyl ester]",Measurement of Edema at 3 hr.,[1]; [4],0.50 ± 0.20 ml ± S.D.
same,% Change (edema vs control),[1]; [5],-46%
"CCOC(=O)Cc1cccc(C(=O)c2ccccc2)c1N [Example 5, 2-Amino-3-benzoylbenzeneacetic acid, ethyl ester]",Measurement of Edema at 3 hr.,[1]; [4],0.27 ± 0.18 ml ± S.D.
same,% Change (edema vs control),[1]; [5],-71%
"Nc1c(CC(=O)O)cccc1C(=O)c1ccc(Br)cc1 [Example 74, 2-Amino-3-(4-bromobenzoyl)benzeneacetic acid, sodium salt, sesquihydrate]",Measurement of Edema at 3 hr.,"[1]; Table 3, Formula B cream, pH = 3.5, 0.2 ml, 3.2% by weight (free acid basis), dermal",0.48 ± 0.17 ml ± S.D.
same,Measurement of Edema at 3 hr.,"[1]; Table 3, Formula B cream, pH = 3.5, 0.2 ml, 3.2% by weight (free acid basis), dermal, sodium salt, sesquihydrate",0.38 ± 0.18 ml ± S.D.
same,3 Hr. Edema,[1]; [6],0.73 ± 0.33 ml ± S.D.
same,% Change (edema vs control),[1]; [6],-26%
same,% Change (edema vs control),"[1]; Table 4, first series, Formula B pH 3.5, 0.10 % (W/W), 1.1 mg/kg dermal",-57%
same,3 Hr. Edema,"[1]; Table 4, first series, Formula B pH 3.5, 0.10 % (W/W), 1.1 mg/kg dermal, p < 0.05",0.42 ± 0.21 ml ± S.D.
same,% Change (edema vs control),"[1]; Table 4, first series, Formula B pH 3.5, 0.32 % (W/W), 3.7 mg/kg dermal",-62%
same,3 Hr. Edema,"[1]; Table 4, first series, Formula B pH 3.5, 0.32 % (W/W), 3.7 mg/kg dermal, p < 0.05",0.37 ± 0.19 ml ± S.D.
same,% Change (edema vs control),"[1]; Table 4, first series, Formula B pH 3.5, 1.0 % (W/W), 11.9 mg/kg dermal",-57%
same,3 Hr. Edema,"[1]; Table 4, first series, Formula B pH 3.5, 1.0 % (W/W), 11.9 mg/kg dermal, p < 0.05",0.42 ± 0.10 ml ± S.D.
same,% Change (edema vs control),"[1]; Table 4, first series, Formula B pH 3.5, 3.16 % (W/W), 36.5 mg/kg dermal",-61%
same,3 Hr. Edema,"[1]; Table 4, first series, Formula B pH 3.5, 3.16 % (W/W), 36.5 mg/kg dermal, p < 0.05",0.38 ± 0.18 ml ± S.D.
same,3 Hr. Edema,[1]; [7],0.88 ± 0.33 ml ± S.D.
same,% Change (edema vs control),[1]; [7],+3%
same,3 Hr. Edema,[1]; [8],1.05 ± 0.22 ml ± S.D.
same,% Change (edema vs control),[1]; [8],+22%
same,3 Hr. Edema,[1]; [9],0.55 ± 0.20 ml ± S.D.
same,% Change (edema vs control),[1]; [9],-36%
same,% Change (edema vs control),"[1]; Table 4, second series, Formula B pH 3.5, 0.32 % (W/W), 3.0 mg/kg dermal",-52%
same,3 Hr. Edema,"[1]; Table 4, second series, Formula B pH 3.5, 0.32 % (W/W), 3.0 mg/kg dermal, p < 0.05",0.42 ± 0.15 ml ± S.D.
same,% Change (edema vs control),"[1]; Table 4, second series, Formula B pH 3.5, 1.0 % (W/W), 10.3 mg/kg dermal",-57%
same,3 Hr. Edema,"[1]; Table 4, second series, Formula B pH 3.5, 1.0 % (W/W), 10.3 mg/kg dermal, p < 0.05",0.37 ± 0.05 ml ± S.D.
same,% Change (edema vs control),"[1]; Table 4, second series, Formula B pH 3.5, 3.16 % (W/W), 31.5 mg/kg dermal",-44%
same,3 Hr. Edema,"[1]; Table 4, second series, Formula B pH 3.5, 3.16 % (W/W), 31.5 mg/kg dermal, p < 0.05",0.48 ± 0.17 ml ± S.D.
same,Activity against edema compared with indomethacin applied dermally or orally,"[1]; comparative study, Example 74 applied dermally to rats",more active against the Edema than indomethacin applied dermally or orally
same,Activity applied dermally compared with orally for a given dose,[1]; comparative study,about as active applied dermally as it was orally for a given dose
same,% Block,[2]; 0.01 wt. % in 50 μl cream,0%
same,% Block,[2]; 0.032 wt. % in 50 μl cream,20%
same,% Block,[2]; 0.10 wt. % in 50 μl cream,60%
same,% Block,[2]; 0.32 wt. % in 50 μl cream,80%
same,% Block,[2]; 1.0 wt. % in 50 μl cream,80%
same,% Block,[2]; 3.16 wt. % in 50 μl cream,90%
same,ED50 as % Concentration of Agent in Cream (95% Confidence Limits),"[2]; probit analysis, 95% confidence limits (0.06-0.29)",0.128%
"COc1ccc2c(c1)c(CC(=O)O)c(C)n2C(=O)c1ccc(Cl)cc1 [indomethacin, reference compound]",Activity applied dermally compared with orally for a given dose,[1]; comparative study,markedly less active when applied dermally than when given orally for a given dose
O=C([O-])c1ccccc1O.[Na+] [sodium salicylate],Skin permeation compared with salicylic acid,[3],permeates poorly compared with salicylic acid
